According to patent publication US20170216213A1, “DIRECTLY COMPRESSIBLE POLYVINYL ALCOHOLS” (Merck Patent GmbH, priority 2014, published 2017):

Assay: Ascorbic acid in-vitro release test (USP Apparatus 2, paddle)
Assay type: physicochemical
Details: from PVA/MCC matrix tablets (samples 1 and 2)
Method: 9. Ascorbic acid release test: The ascorbic acid-containing compressed tablets (from the compressions with a pressing force of 20 kN) are measured in a SOTAX (Allschwil, Switzerland) in-vitro release apparatus using the “Apparatus 2 (Paddle Apparatus)” described in USP 36 under <711> and under the conditions described therein for “Extended-release dosage forms” (USP=United States Pharmacopoeia). The sampling is carried out automatically via a hose pump system with subsequent measurement in an 8453 spectrometer (Agilent Technologies, USA) and a flow cell.
The averaged values are obtained from the release tests of in each case 6 ascorbic acid-containing tablets pressed with a pressing force of 20 kN.
Measurement Apparatuses and Measurement Parameters:
1. —Sotax AT7s release apparatus fitted with Apparatus 2 (Paddle Apparatus in accordance with USP 36) • Temperature: 37° C.+/−0.5° C. • Paddle speed: 100 rpm • Volume of release medium per measurement vessel: 900 ml • Tablet weight: 500 mg • Total run time of the measurement: 720 min. (with sampling after 15, 30, 45, 60, 120, 180, 240, 300, 360, 420, 480, 540, 600, 660, 720 min.)
2. —Hose pump for sampling: Sotax CY 7-50 (SOTAX, Switzerland)
3. —8453 spectrometer (Agilent Technologies, USA) • Measurement at 244 nm in a 2 mm flow measurement cell • Evaluation via Excel • Medium preparation: Dosa Prep X8 (DOSATEC GmbH, Germany) […]

SMILES: O=C1O[C@H]([C@@H](O)CO)C(O)=C1O [ascorbic acid, L(+)-ascorbic acid]
- Duration of retarded in-vitro release: over several hours
